These results are taken from article PMC6976638, “Screening of natural compounds that targets glutamate racemase of Mycobacterium tuberculosis reveals the anti-tubercular potential of flavonoids” (Scientific Reports, 2020).

For series [1], the target named is Glutamate racemase (MTB-MurI) (Mycobacterium tuberculosis, UniProt P9WPW9). The series can be described thus: GDH-coupled racemization assay (A340), Lineweaver-Burk and Dixon plots; […]. The series is classed as biochemical.
Another series has as its system N[C@H](CCC(=O)O)C(=O)O. The series can be described thus: purified protein. Conditions: substrate binding site; Cys75 and Cys185 catalytic residues.

Glutamate racemase (MTB-MurI), sequence (P9WPW9 whole entry, looked up): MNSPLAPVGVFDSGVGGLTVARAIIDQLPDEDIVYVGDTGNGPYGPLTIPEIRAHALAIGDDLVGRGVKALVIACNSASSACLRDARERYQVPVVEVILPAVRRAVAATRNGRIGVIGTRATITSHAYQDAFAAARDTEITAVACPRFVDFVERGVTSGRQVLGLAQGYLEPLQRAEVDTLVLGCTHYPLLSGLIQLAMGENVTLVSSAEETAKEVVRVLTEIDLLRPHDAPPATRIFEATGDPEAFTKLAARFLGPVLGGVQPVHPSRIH

On to `O=C1C[C@@H](c2ccc(O)cc2)Oc2cc(O)cc(O)c21` [naringenin], for which, in series [1], the inhibitory constant (Ki) was determined as 23.8 µM.
Still for that read-out and setting: the value for `O=c1c(O)c(-c2ccc(O)c(O)c2)oc2cc(O)cc(O)c12` [quercetin] was 20.8 µM.
With “Glutamate racemase (MTB-MurI) (Mycobacterium tuberculosis H37Rv)”, in the series on N[C@H](CCC(=O)O)C(=O)O, the Michaelis-Menten constant (Km) amounted to 499 µM.

In general, Ki refers to a dissociation constant, usually derived from enzyme kinetics or from competition with a known ligand. Read a high Ki as lower affinity. Usually Km stands for the substrate concentration at which the rate is half of its maximum.
